Source: US20100040615A1, “Digalactolipidic Antigen Exposed on the Surface of Apicomplex Parasites, and Diagnostic and Therapeutic Use Thereof” (COMMISSARIAT A L'ENERGIE ATOMIQUE, priority 2007, published 2010)

Assay: Immunization of animals with purified galactolipid, sera tested for antibodies
Format: in vivo, rabbits and rat
Conditions: five immunizations, Freund's adjuvant, sera taken at D57
Procedure: Two rabbits and one rat were immunized with purified DGDG ([…]), according to the following protocol: • a first immunization (D0) by multisite subcutaneous injection (total volume of 1 ml) of 0.5 mg of antigen in 0.5 ml of a solution of NaCl (0.9%), emulsified in 0.5 ml of complete Freund's adjuvant, • a second immunization (D10) by subcutaneous (1 ml) and intramuscular (0.5 ml) injection of 0.5 mg of antigen in 0.75 ml of a solution of NaCl (0.9%), emulsified in 0.75 ml of incomplete Freund's adjuvant, • a third immunization (D21) by subcutaneous (1 ml) and intramuscular (0.5 ml) injection of 0.5 mg of antigen in 0.75 ml of a solution of NaCl (0.9%), emulsified in 0.75 ml of incomplete Freund's adjuvant, • a fourth immunization (D36) by intramuscular (0.5 ml) and intravenous (0.5 ml) injection: 0.17 mg of antigen in 0.25 ml of a solution of NaCl (0.9%), emulsified in 0.25 ml of incomplete Freund's adjuvant, injected intramuscularly, and 0.33 mg of antigen in 0.5 ml of a solution of NaCl (0.9%), injected intravenously, and • a fifth immunization (D50) by intramuscular (0.5 ml) and intravenous (0.5 ml) injection: 0.17 mg of antigen in 0.25 ml of a solution of NaCl (0.9%), emulsified in 0.25 ml of incomplete Freund's adjuvant, injected intramuscularly, and 0.33 mg of antigen in 0.5 ml of a solution of NaCl (0.9%), injected intravenously. […]

Row | Substance | induction of active serum (antibodies against the immunizing lipid)
1 | monogalactosyldiacylglycerol [MGDG] | did not make it possible to obtain active serum
2 | 1,2-diacyl-(α-D-galactopyranosyl-(1→6)-β-D-galactopyranosyl-(1′→3))-sn-glycerol [DGDG] | made it possible to obtain active sera containing antibodies that recognize DGDG
